One data set deals with Nucleic Acid. Put plainly: Ratio of drug level in liver to blood in athymic nude BALB/c mouse xenografted with human MDA-MB-231 cells at 3 to 3.7 MBq, iv after 60 mins by gamma counting. Particulars: other tissue, 1 h; call rule not given here. The class given is ADME, organism-based. Background: In xenograft studies the graft and the host belong to different species.
Data set [1] can be described thus: Drug uptake in tumor of human MDA-MB-231 cells xenografted athymic nude BALB/c mouse at 3 to 3.7 MBq, iv up to 10 mins by PET scanning analysis. In kind it is ADME, organism-based, Neoplasm. The note with it: in vivo.
The next data set concerns Kidney. Put plainly: Drug uptake in kidney of athymic nude BALB/c mouse xenografted with human MDA-MB-231 cells at 3 to 3.7 MBq, iv up to 60 mins by PET scanning analysis. The note with it: in vivo, 1 h. The class given is ADME, organism-based.
In another data set the test system is Urinary bladder. Put plainly: Drug uptake in bladder of athymic nude BALB/c mouse xenografted with human MDA-MB-231 cells at 3 to 3.7 MBq, iv at 30 to 60 mins by PET scanning analysis. The class given is ADME, organism-based. The note with it: in vivo.
Another data set deals with Heart. Put plainly: Drug uptake in heart of athymic nude BALB/c mouse xenografted with human MDA-MB-231 cells at 3 to 3.7 MBq, iv at 30 to 60 mins by PET scanning analysis. In kind it is ADME, organism-based. Particulars: in vivo.
Data set [2] is described as follows: Drug uptake in tumor of human MDA-MB-231 cells xenografted athymic nude BALB/c mouse at 3 to 3.7 MBq, iv up to 60 mins by PET scanning analysis. In kind it is ADME, organism-based, Neoplasm. The note with it: in vivo, 1 h.

On to `O[C@@H]1[C@@H](O)[C@H](O)[C@H]([18F])[C@H](O)[C@H]1O`, for which the Ratio with Nucleic Acid is 1.7. Further, the Drug uptake entry (in data set [1]; with Kidney; with Urinary bladder; in the data set on Heart; in data set [2]) was “Active” throughout.
For the molecule `O[C@@H]1[C@@H](O)[C@H](O)[C@@H]([18F])[C@H](O)[C@H]1O`, the Ratio with Nucleic Acid turned out to be 1.5. For the same molecule, the Drug uptake entry in data set [1] and in data set [2] was “Active” each time.

The values above are taken from ChEMBL document CHEMBL2086228, “Radiosynthesis and in vivo tumor uptake of 2-deoxy-2-[(18)F]fluoro-myo-inositol” (Bioorg Med Chem Lett, 2012).
